Assay results published in patent publication US20220363689A1, “INHIBITOR OF BTK AND MUTANTS THEREOF” (Newave Pharmaceutical Inc., priority 2019, published 2022).
Like-named read-outs stand apart in the source and are kept apart here.

Columns and labels:
[1] = test system: liver cancer cell line HepG2; assay: HepG2 in vitro liver toxicity assay (ATPlite); type: cell-based; conditions: another experiment, about 72 hours incubation, read-out: HepG2 IC50 (another experiment)
Method: Cell antiproliferation is assayed by PerkinElmer ATPlite™ Luminescence Assay System. Briefly, the liver cancer cell line HepG2 are plated at a density of about 1×10^4 cells per well in Costar 96-well plates, and are incubated with different concentrations of compounds for about 72 hours in medium supplemented with 5% FBS. One lyophilized substrate solution vial is then reconstituted by adding 5 mL of substrate buffer solution, and is agitated gently until the solution is homogeneous. About 50 μL of mammalian cell lysis solution is added to 100 μL of cell suspension per well of a microplate, and the plate is shaken for about five minutes in an orbital shaker at −700 rpm. This procedure is used to lyse the cells and to stabilize the ATP. Next, 50 μL substrate solution is added to the wells and microplate is shaken for five minutes in an orbital shaker at −700 rpm. Finally, the luminescence is measured by a PerkinElmer TopCount® Microplate Scintillation Counter. Such assays, carried out with a range of doses of test compounds, allow the determination of the cellular anti-antiproliferative IC50 of the compounds of the present invention.

Mice PK study = type: in vivo; conditions: plasma, CD-1 mouse, po, 25 mg/kg
Method: The pharmacokinetics of compounds were evaluated in CD-1 mouse via Intravenous and Oral Administration. The IV dose was administered as a slow bolus in the Jugular vein, and oral doses were administered by gavage. The formulation for IV dosing is 5% DMSO in 20% HPBCD in water, and the PO formulation is 2.5% DMSO, 10% EtOH, 20% Cremphor EL, 67.5% D5W. The PK time point for the IV arm was 5, 15, 30 min, 1, 2, 4, 6, 8, 12, 24 hours post dose, and for PO arm was 15, 30 min, 1, 2, 4, 6, 8, 12, 24 hours post dose. Approximately 0.03 mL blood was collected at each time point. Blood of each sample was transferred into plastic micro centrifuge tubes containing EDTA-K2 and plasma was collected within 15 min by centrifugation at 4000 g for 5 minutes in a 4° C. centrifuge. Plasma samples were stored in polypropylene tubes. The samples were stored in a freezer at −75±15° C. prior to analysis. Concentrations of compounds in the plasma samples were analyzed using a LC-MS/MS method. WinNonlin (Phoenix™, version 6.1) or other similar software was used for pharmacokinetic calculations. The following pharmacokinetic parameters were calculated, whenever possible from the plasma concentration versus time data: IV administration: C0, CL, Vd, T1/2, AUCinf, AUClast, MRT, Number of Points for Regression; PO administration: Cmax, Tmax, T1/2, AUCinf, AUClast, F %, Number of Points for Regression. The pharmacokinetic data was described using descriptive statistics such as mean, standard deviation. Additional pharmacokinetic or statistical analysis was performed at the discretion of the contributing scientist, and was documented in the data summary. For comparison purpose, the PK results of oral dosing of po, 25 mg/kg of Acalbrutinib, a FDA approved BTK inhibitor, were obtained using the same methods and shown in the Table below.

WT BTK [2] = molecular target: T1, WT BTK (Homo sapiens, UniProt Q06187); assay: In vitro dialysis assay (irreversibility assay), WT BTK; type: biochemical; conditions: reversible or irreversible/covalent inhibition after 24 h dialysis
Method: The compound-enzyme complex was dialyzed against the same buffer supplemented with 40 mM ATP for 24 hr. Cumulative dialysis factor>160,000×. After dialysis, the BTK activity was measured in the presence […] and 1 mM substrate peptide and compared to that in non-dialyzed samples. Assay buffer: 100 mM HEPES, pH7.5; […]; 5 mM MgCl2; 1 mM DTT. In this study, Ibrutiib (a FDA approved irreversible BTK inhibitor) was used as a positive control and Saurosporine (a reversible BTK inhibitor) was used as a negative control.

WT BTK [3] = molecular target: T1, WT BTK; assay: Caliper-based kinase assay, WT BTK; type: biochemical; conditions: 0.5 nM enzyme, ATP 16 μM, room temperature 3 h; read-out: WT BTK IC50 (nM) (irreversible inhibition)
Method: (§1) A Caliper-based kinase assay (Caliper Life Sciences, Hopkinton, Mass.) was used to measure inhibition of WT and […] Btk kinase activity of a compound of the present disclosure. […] The reaction was then terminated with EDTA, final concentration 20 mM and the phosphorylated reaction product was quantified on a Caliper Desktop Profiler (Caliper LabChip 3000).

C481S Btk = C481S Btk (Homo sapiens, UniProt Q06187, C481S); assay: Caliper-based kinase assay, C481S BTK; type: biochemical; conditions: 0.5 nM enzyme, ATP 16 μM, room temperature 3 h; read-out: C481S BTK IC50 (nM) (reversible inhibition)
Method: as §1

[4] = test system: basophil activation, B cell receptor activation, and constitutive p-BTK activity in whole blood lysates; conditions: read-out: IC50s for basophil activation, B cell receptor activation, and constitutive p-BTK activity; cited from earlier work
[5] = rats, treatment for longer than 7 days; cited from earlier work
[6] = mice, even at higher doses; cited from earlier work
[7] = dogs, even at higher doses; cited from earlier work
[8] = Phase I clinical trials, formulations containing GDC-0853; cited from earlier work

T1 sequence (Q06187 whole entry): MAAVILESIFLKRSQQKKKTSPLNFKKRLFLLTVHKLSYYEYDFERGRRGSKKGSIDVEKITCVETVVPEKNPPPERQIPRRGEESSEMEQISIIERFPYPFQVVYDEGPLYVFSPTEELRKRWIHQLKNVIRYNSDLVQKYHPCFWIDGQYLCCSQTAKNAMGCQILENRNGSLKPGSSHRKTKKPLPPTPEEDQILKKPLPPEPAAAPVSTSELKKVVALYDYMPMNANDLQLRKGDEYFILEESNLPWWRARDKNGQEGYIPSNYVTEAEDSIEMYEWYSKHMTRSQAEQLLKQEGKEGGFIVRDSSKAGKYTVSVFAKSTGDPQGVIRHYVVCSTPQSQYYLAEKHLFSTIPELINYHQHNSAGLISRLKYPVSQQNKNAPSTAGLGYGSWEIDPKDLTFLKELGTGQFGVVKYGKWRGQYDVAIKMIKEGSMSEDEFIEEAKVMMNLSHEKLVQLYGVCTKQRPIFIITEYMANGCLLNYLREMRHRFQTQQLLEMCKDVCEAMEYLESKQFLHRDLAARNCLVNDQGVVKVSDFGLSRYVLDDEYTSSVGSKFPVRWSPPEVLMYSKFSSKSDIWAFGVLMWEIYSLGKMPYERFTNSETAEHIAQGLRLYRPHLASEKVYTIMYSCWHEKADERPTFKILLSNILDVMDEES
C481S Btk, sequence (Q06187 whole entry C481S): as the sequence (Q06187 whole entry) above, with C481S counted along it

| Structure (SMILES) | Conclusion (WT BTK) (WT BTK [2]) | IC50 (WT BTK [3]) [nM] | IC50 (C481S Btk) [nM] | also measured |
| --- | --- | --- | --- | --- |
| CC#CC(=O)N1CCC[C@H]1c1nc(-c2ccc(C(=O)Nc3ccccn3)cc2)c2c(N)nccn12 [Acalabrutinib, reference compound] |  |  |  | IC50 ([1]; Homo sapiens, HepG2): > 40000 nM; AUC (Mice PK study): 1.45 µg·h/mL; half-life (Mice PK study; read-out: t ½ (converted)): 1.1 h |
| C=CC(=O)Nc1cc(Nc2nc(-c3ccnc(N4CCn5c(cc6c5CC(C)(C)C6)C4=O)c3CO)cn(C)c2=O)ccc1C1C(=O)N(C)CCN1C1COC1 (stereo not drawn) [Example 41] | Irreversible/covalent inhibition | 0.27 | 0.61 |  |
| C=CC(=O)Nc1cc(Nc2nc(-c3ccnc(N4CCn5c(cc6c5CC(C)(C)C6)C4=O)c3CO)cn(C)c2=O)ccc1C1CN(C2COC2)CC(=O)N1C (stereo not drawn) [Example 42, N-(5-[[6-(2-[4,4-dimethyl-9-oxo-1,10-diazatricyclo[6.4.0.0^[2,6]]dodeca-2(6),7-dien-10-yl]-3-(hydroxymethyl)pyri-din-4-yl)-4-methyl-3-oxopyrazin-2-yl]amino]-2-[1-methyl-4-(oxetan-3-yl)-6-oxopiperazin-2-yl]phenyl)prop-2-enamide] | Irreversible/covalent inhibition | 0.24 | 0.3 |  |
| C=CC(=O)Nc1cc(Nc2nc(-c3ccnc(N4CCn5c(cc6c5CC(C)(C)C6)C4=O)c3CO)cn(C)c2=O)ccc1C1CN(C)C(=O)CN1C1COC1 (stereo not drawn) [Example 43] | Irreversible/covalent inhibition | 0.35 | 0.5 |  |
| C[C@H]1CN(C2COC2)CCN1c1ccc(Nc2cc(-c3ccnc(N4CCn5c(cc6c5CC(C)(C)C6)C4=O)c3CO)cn(C)c2=O)nc1 [GDC-0853] | Reversible |  |  | IC50 [4]: 2 to 9 nM; Pancreatic toxicity [5]: pancreatic toxicity; Pancreatic toxicity [6]: does not occur; Pancreatic toxicity [7]: does not occur; Tolerability [8]: well-tolerated |

Continued by falling IC50 (WT BTK [3]), values first:

| Conclusion (WT BTK) (WT BTK [2]) | IC50 (WT BTK [3]) [nM] | IC50 (C481S Btk) [nM] | Structure (SMILES) | also measured |
| --- | --- | --- | --- | --- |
| Irreversible/covalent inhibition | 0.13 | 17.9 | C=CC(=O)Nc1cc(Nc2nc(-c3ccnc(N4CCc5c(sc6c5CCC6(C)C)C4=O)c3CO)cn(C)c2=O)ccc1N1CCN(C2COC2)C[C@@H]1C [Example 35, N-(5-[[6-(2-[5,5-dimethyl-9-oxo-7-thia-10-azatricyclo[6.4.0.0^[2,6]]dodeca-1(8),2(6)-dien-10-yl]-3-(hydroxymethyl)pyridin-4-yl)-4-methyl-3-oxopyrazin-2-yl]amino]-2-[(2S)-2-methyl-4-(oxetan-3-yl)piperazin-1-yl]phenyl)prop-2-enamide] |  |
| Irreversible/covalent inhibition | 0.1 | 1.1 | C=CC(=O)Nc1cc(Nc2nc(-c3ccnc(N4CCc5c(sc6c5CCCC6)C4=O)c3CO)cn(C)c2=O)ccc1N1CCN(C2COC2)C[C@@H]1C [Example 36, N-[5-([6-[3-(hydroxymethyl)-2-[6-oxo-8-thia-5-azatricyclo[7.4.0.0^[2,7]]trideca-1(9),2(7)-dien-5-yl]pyridin-4-yl]-4-methyl-3-oxopyrazin-2-yl]amino)-2-[(2S)-2-methyl-4-(oxetan-3-yl)piperazin-1-yl]phenyl]prop-2-enamide] |  |
| Irreversible/covalent inhibition | 0.076 | 0.32 | C=CC(=O)Nc1cc(Nc2nc(-c3ccnc(N4CCCn5c(cc6c5CC(C)(C)C6)C4=O)c3CO)cn(C)c2=O)ccc1N1CCN(C2COC2)C[C@@H]1C [Example 29, N-(5-[[6-(2-[4,4-dimethyl-9-oxo-1,10-diazatricyclo[6.5.0.0^[2,6]]trideca-2(6),7-dien-10-yl]-3-(hydroxymethyl)pyridin-4-yl)-4-methyl-3-oxopyrazin-2-yl]amino]-2-[(2S)-2-methyl-4-(oxetan-3-yl)piperazin-1-yl]phenyl)prop-2-enamide] |  |
| Irreversible/covalent inhibition | 0.073 | 0.26 | C=CC(=O)Nc1cc(Nc2nc(-c3ccnc(N4CCCn5c(cc6c5CC(C)(C)C6)C4=O)c3CO)cn(C)c2=O)ccc1N1CCN([C@H]2C[C@@H](C)O[C@@H](C)C2)C[C@@H]1C [Example 38, N-(5-[[6-(2-[4,4-dimethyl-9-oxo-1,10-diazatricyclo[6.5.0.0^[2,6]]trideca-2(6),7-dien-10-yl]-3-(hydroxymethyl)pyridin-4-yl)-4-methyl-3-oxopyrazin-2-yl]amino]-2-[(2S)-2-methyl-4-[(2R,4r,6S)-2,6-dimethyloxan-4-yl]piperazin-1-yl]phenyl)prop-2-enamide] |  |
| Irreversible/covalent inhibition | 0.06 | 0.34 | C=CC(=O)Nc1cc(Nc2nc(-c3ccnc(N4CCn5c(cc6c5CC(C)(C)C6)C4=O)c3CO)cn(C)c2=O)ccc1N1CCN(C2CCOC2)C[C@@H]1C (stereo partly drawn) [Example 39, N-(5-[[6-(2-[4,4-dimethyl-9-oxo-1,10-diazatricyclo[6.4.0.0^[2,6]]dodeca-2(6),7-dien-10-yl]-3-(hydroxymethyl)pyridin-4-yl)-4-methyl-3-oxopyrazin-2-yl]amino]-2-[(2S)-2-methyl-4-(oxolan-3-yl)piperazin-1-yl]phenyl)prop-2-enamide] |  |
| Irreversible/covalent inhibition | 0.058 |  | C=CC(=O)Nc1cc(Nc2nc(-c3ccnc(N4CCc5c(sc6c5CCCC6)C4=O)c3CO)cn(C)c2=O)ccc1N1CCN(C2CCOCC2)C[C@@H]1C [Example 56, N-[5-([6-[3-(hydroxymethyl)-2-[6-oxo-8-thia-5-azatricyclo[7.4.0.0^[2,7]]trideca-1(9), 2(7)-dien-5-yl]pyridin-4-yl]-4-methyl-3-oxopyrazin-2-yl]amino)-2-[(2S)-2-methyl-4-(oxan-4-yl)piperazin-1-yl]phenyl]prop-2-enamide] | IC50 [1]: 26000 nM |
| Irreversible/covalent inhibition | 0.048 | 0.49 | C=CC(=O)Nc1cc(Nc2nc(-c3ccnc(N4CCn5c(cc6c5CC(C)(C)C6)C4=O)c3CO)cn(C)c2=O)ccc1N1CCN(C2CCC(F)(F)CC2)C[C@@H]1C [Example 23, N-[2-[(2S)-4-(4,4-difluorocyclohexyl)-2-methylpiperazin-1-yl]-5-[[6-(2-[4,4-dimethyl-9-oxo-1,10-diazatricyclo[6.4.0.0^[2,6]]dodeca-2(6),7-dien-10-yl]-3-(hydroxymethyl)pyridin-4-yl)-4-methyl-3-oxopyrazin-2-yl]amino]phenyl]prop-2-enamide] |  |
